Measured values reported in patent US20230122249A1, “1H-PYRAZOLO[4,3-d]PYRIMIDINE COMPOUNDS AS TOLL-LIKE RECEPTOR 7 (TLR7) AGONISTS” (BRISTOL-MYERS SQUIBB COMPANY, priority 2020, published 2023).

How the values were obtained:
human TLR7 = biological target: T1, human TLR7 (Homo sapiens, UniProt Q9NYK1); test: Human TLR7 agonist activity (hTLR7 reporter) assay in HEK-Blue TLR7 cells, SEAP readout; type: cell-based; details: 18 h treatment, average where assay repeated
T1 construct: host or cells: HEK-Blue TLR7 cells (engineered human embryonic kidney cells)
T1 sequence (Q9NYK1 27-1049): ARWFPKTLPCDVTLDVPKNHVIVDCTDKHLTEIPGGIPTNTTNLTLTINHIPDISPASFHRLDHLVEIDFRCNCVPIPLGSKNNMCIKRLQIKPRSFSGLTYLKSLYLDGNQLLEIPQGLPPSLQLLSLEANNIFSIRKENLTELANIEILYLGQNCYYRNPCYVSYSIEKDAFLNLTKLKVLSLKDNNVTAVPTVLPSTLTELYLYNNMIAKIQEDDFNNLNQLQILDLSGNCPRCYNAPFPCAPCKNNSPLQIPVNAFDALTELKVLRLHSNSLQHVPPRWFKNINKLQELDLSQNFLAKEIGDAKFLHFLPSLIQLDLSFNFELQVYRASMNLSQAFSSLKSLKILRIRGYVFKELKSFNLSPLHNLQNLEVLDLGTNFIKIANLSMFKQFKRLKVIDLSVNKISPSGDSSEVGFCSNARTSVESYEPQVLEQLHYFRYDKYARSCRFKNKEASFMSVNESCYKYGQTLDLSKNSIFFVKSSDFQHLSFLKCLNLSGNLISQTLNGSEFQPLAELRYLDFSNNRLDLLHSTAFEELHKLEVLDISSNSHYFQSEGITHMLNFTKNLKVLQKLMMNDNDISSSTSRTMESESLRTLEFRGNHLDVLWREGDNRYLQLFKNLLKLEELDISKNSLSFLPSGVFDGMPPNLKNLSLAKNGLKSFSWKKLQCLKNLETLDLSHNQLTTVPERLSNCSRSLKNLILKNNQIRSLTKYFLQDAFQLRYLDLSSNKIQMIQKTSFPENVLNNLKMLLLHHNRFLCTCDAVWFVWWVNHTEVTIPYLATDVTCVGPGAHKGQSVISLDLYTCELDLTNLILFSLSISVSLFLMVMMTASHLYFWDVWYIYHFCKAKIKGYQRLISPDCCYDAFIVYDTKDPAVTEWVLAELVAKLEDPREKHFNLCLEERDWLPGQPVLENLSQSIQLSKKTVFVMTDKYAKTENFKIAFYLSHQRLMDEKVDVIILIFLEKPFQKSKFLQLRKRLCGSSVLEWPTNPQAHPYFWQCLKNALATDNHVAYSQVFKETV
Experimental: This procedure describes a method for assaying human TLR7 (hTLR7) agonist activity of the compounds disclosed in this specification.
HEK-Blue™ TLR7 cells were added to each well of a 384-well tissue-culture plate (15,000 cells per well) and incubated 16-18 h at 37° C., 5% CO2. Compounds (100 nl) were dispensed into wells containing the HEK-Blue™ TLR cells and the treated cells were incubated at 37° C., 5% CO2. After 18 h treatment ten microliters of freshly-prepared Quanti-Blue™ reagent (Invivogen) was added to each well, incubated for 30 min (37° C., 5% CO2) and SEAP levels measured using an Envision plate reader (OD=620 nm). The half maximal effective concentration values (EC50; compound concentration which induced a response halfway between the assay baseline and maximum) were calculated.

[1] = test system: CD69 in human whole blood; test: Induction of CD69 in human whole blood (hWB); type: cell-based; details: heparinized human whole blood, 17 h, CD69 surface staining; 100% set to 1 uM resiquimod; average where assay repeated
Experimental: The induction of Type I interferon (IFN) MX-1 genes and the B-cell activation marker CD69 are downstream events that occur upon activation of the TLR7 pathway. The following is a human whole blood assay that measures their induction in response to a TLR7 agonist.
Heparinized human whole blood was harvested from human subjects and treated with test TLR7 agonist compounds at 1 mM. The blood was diluted with RPMI 1640 media and Echo was used to predot 10 nL per well giving a final concentration of 1 uM (10 nL in 10 uL of blood). After mixing on a shaker for 30 sec, the plates were covered and placed in a 37° C. chamber for o/n=17 hrs. Fixing/lysis buffer was prepared (5×->1×in H2O, warm at 37° C.; Cat# BD 558049) and kept the perm buffer (on ice) for later use.
For surface markers staining (CD69): prepared surface Abs: 0.045 ul hCD14-FITC (ThermoFisher Cat # MHCD1401)+0.6 ul hCD19-ef450 (ThermoFisher Cat #48-0198-42)+1.5 ul hCD69-PE (cat# BD555531)+0.855 ul FACS buffer. Added 3 ul/well, spin1000 rpm for 1 min and mixed on shaker for 30 sec, put on ice for 30 mins. Stop stimulation after 30 minutes with 70 uL of prewarmed 1×fix/lysis buffer and use Feliex mate to resuspend (15 times, change tips for each plate) and incubate at 37° C. for 10 minutes.
Centrifuge at 2000 rpm for 5 minutes aspirate with HCS plate washer, mix on shaker for 30 sec and then wash with 70 uL in dPBS and pelleted 2 xs (2000 rpm for 5 min) and 50 ul wash in FACS buffer pelleted 1 xs(2000 rpm for 5 min). Mix on shaker for 30 sec. For Intracellular markers staining (MX-1): Add 50 ul of BD Perm buffer III and mix on shaker for 30 sec. Incubate on ice for 30 minutes (in the dark). Wash with 50 uL of FACS buffer 2×(spin @2300 rpm×5 min after perm) followed by mixing on shaker for 30 sec. Resuspended in 20 ul of FACS buffer containing MX1 antibody ( )(4812)-Alexa 647: Novus Biologicals #NBP2-43704AF647) 20 ul FACS bf+0.8 ul hlgG+0.04 ul MX-1. Spin 1000 rpm for 1 min, mix on shaker for 30 se and the samples were incubated at RT in the dark for 45 minutes followed by washing 2×FACS buffer (spin @2300 rpm×5 min after perm). Resuspend 20 ul (35 uL total per well) of FACS buffer and cover with foil and place in 4° C. to read the following day. Plates were read on iQuePlus. The results were loaded into toolset and […] curves are generated in curve master. The y-axis 100% is set to 1 uM of resiquimod.

| Structure (SMILES) | EC50 (human TLR7) | EC50 [1] |
| --- | --- | --- |
| COc1cc(CN2CC3(CN(C)C3)C2)ccc1Cn1ncc2nc(N)nc(NCC3CC4(CC4)C3)c21 [Compound 131] | 234 nM | 4.6 nM |
| CCC[C@@H](CCO)Nc1nc(N)nc2cnn(Cc3ncc(C4=CC5(CCN(C6CCOCC6)CC5)C4)cc3OC)c12 [Compound 273, (3S)-3-{[5-amino-1-({3-methoxy-5-[7-(oxan-4-yl)-7-azaspiro[3.5]non-1-en-2-yl]pyridin-2-yl}methyl)-1H-pyrazolo[4,3-d]pyrimidin-7-yl]amino}hexan-1-ol] | 47.5 nM | 1.5 nM |
| CCCCNc1nc(N)nc2cnn(Cc3ccc(CN4CC5(C4)CN(C(=O)C4(C)CC4)C5)cc3OC)c12 [Compound 111] | 52.5 nM | 24.9 nM |
| COc1cc(C(=O)NC2CCN(C)CC2)ccc1Cn1nc(C)c2nc(N)nc(NCC3CC4(CC4)C3)c21 [Compound 207] | 325 nM | 93.3 nM |
| CCC[C@@H](CCO)Nc1nc(N)nc2cnn(Cc3ccc(CN4CC5(C4)CN(C(=O)C4(C)CC4)C5)cc3OC)c12 [Compound 107] | 6.6 nM | 9.9 nM |
| CCC[C@@H](CCO)Nc1nc(N)nc2c(C)nn(Cc3ccc(CNC4CC5(C4)CN(C)C5)cc3OC)c12 [Compound 269] | 69.9 nM | 3.7 nM |
| CCC[C@@H](CCO)Nc1nc(N)nc2cnn(Cc3ccc(CN4CC5(C4)CN(CC4CCC4)C5)cc3OC)c12 [Compound 252] | 6.1 nM | 0.4 nM |
| COc1cc(C(=O)NC2CN(C)C2)ccc1Cn1ncc2nc(N)nc(NCC3CC4(CCC4)C3)c21 [Compound 205] | 328 nM | 314 nM |
| CCC[C@@H](CCO)Nc1nc(N)nc2cnn(Cc3ncc(C4CC5(C4)CN(C(C)C)C5)cc3OC)c12 [Compound 251] | 134 nM | 1.8 nM |
| CCC[C@@H](CCO)Nc1nc(N)nc2c(C)nn(Cc3ccc(CN4CC5(CNC5)C4)cc3OC)c12 [Compound 246] | 180 nM | 11.1 nM |
| COc1cc(C(=O)N2CCN(CC(F)(F)F)CC2)ccc1Cn1ncc2nc(N)nc(NCC3CC4(CC4)C3)c21 [Compound 237] | 589 nM | 958 nM |
| COc1cc(CN2CC(CCO)C2)ccc1Cn1ncc2nc(N)nc(NCC3CC4(CC4)C3)c21 [Compound 168] | 30.4 nM | 3.8 nM |
| CCC[C@@H](CCO)Nc1nc(N)nc2cnn(Cc3ncc(C4CCC5(CC4)CN(C(C)C)C5)cc3OC)c12 [Compound 277] | 19.7 nM | 0.3 nM |
| CCC[C@@H](CCO)Nc1nc(N)nc2cnn(Cc3ccc(C(=O)N4CC5(CN(CCO)C5)C4)cc3OC)c12 [Compound 233] | 412 nM | 265 nM |
| CCC[C@@H](CCO)Nc1nc(N)nc2cnn(Cc3ccc(C(=O)N4CC5(C4)CN(C4CCOCC4)C5)cc3OC)c12 [Compound 229] | 37.9 nM | 37.6 nM |
| CCC[C@@H](CCO)Nc1nc(N)nc2cnn(Cc3ncc(C4=CC5(CCN(CC(C)C)CC5)C4)cc3OC)c12 [Compound 275] | 11 nM | 1.2 nM |

Now from value to molecule:

| EC50 (human TLR7) | EC50 [1] | Structure (SMILES) |
| --- | --- | --- |
| 58.5 nM | 1.3 nM | CCCCNc1nc(N)nc2cnn(Cc3ccc(CN4CCC5(CCN(CCO)C5)C4)cc3OC)c12 (stereo not shown) [Compound 267] |
| 7.3 nM | 1.3 nM | CCC[C@@H](CCO)Nc1nc(N)nc2cnn(Cc3ccc(CN4CC5(C4)CN(C(C)C)C5)cc3OC)c12 [Compound 216] |
| 198 nM | 4.8 nM | CCCCNc1nc(N)nc2cnn(Cc3ccc(CN4CC5(CCNC5)C4)cc3OC)c12 [Compound 257] |
| 73 nM | 25.4 nM | COc1cc(C(=O)N2CC3(C2)CN(C(C)C)C3)ccc1Cn1ncc2nc(N)nc(NCc3noc(C)n3)c21 [Compound 248] |
| 141 nM | 122 nM | COc1cc(CN2CC3(CCOCC3)C2)ccc1Cn1ncc2nc(N)nc(NCC3CC4(C3)CC4F)c21 (stereo not shown) [Compound 117] |
| 175 nM | 5.7 nM | CCCCNc1nc(N)nc2cnn(Cc3ccc(CN4CCC5(CC4)CNC5)cc3OC)c12 [Compound 255] |
| 193 nM | 411 nM | COc1cc(C(=O)NC2CCN(C3CC3)CC2)ccc1Cn1ncc2nc(N)nc(NCC3CC4(CC4)C3)c21 [Compound 195] |
| 425 nM | 555 nM | COc1cc(C(=O)N2CCC(S(C)(=O)=O)CC2)ccc1Cn1ncc2nc(N)nc(NCC3CC4(CC4)C3)c21 [Compound 226] |
| 276 nM | 197 nM | COc1cc(C(=O)NC2CCN(CC(=O)N(C)C)CC2)ccc1Cn1ncc2nc(N)nc(NCC3CC4(CC4)C3)c21 [Compound 230] |
| 482 nM | 117 nM | COc1cc(CN2CCN(CCO)CC2)ccc1Cn1ncc2nc(N)nc(NCC3CC4(C3)CC(F)(F)C4)c21 [Compound 185] |
| 48.1 nM | 15.2 nM | COc1cc(C(=O)N[C@@H]2CCN(C)C2)ccc1Cn1ncc2nc(N)nc(NCC3CC4(CC4)C3)c21 [Compound 193] |
| 62.5 nM | 13.6 nM | CCCCNc1nc(N)nc2cnn(Cc3ccc(CN4CCC5(CC4)CN(CCO)C5)cc3OC)c12 [Compound 259] |
| 138 nM | 31.1 nM | CCCCNc1nc(N)nc2c(C)nn(Cc3ccc(CN4CC5(C4)CN(C(C)=O)C5)cc3OC)c12 [Compound 244] |
| 254 nM | 110 nM | COc1cc(C(=O)N2C[C@@H]3C[C@H]2CN3)ccc1Cn1ncc2nc(N)nc(NCC3CC4(CCC4)C3)c21 [Compound 181] |
| 583 nM | 552 nM | COc1cc(CN2CC3(CNC3)C2)ccc1Cn1ncc2nc(N)nc(NCC3CC4(CCC4)C3)c21 [Compound 155] |
| 728 nM | 363 nM | COc1cc(C(=O)N2CC3(CNC3)C2)ccc1Cn1ncc2nc(N)nc(NCC3CC4(CCC4)C3)c21 [Compound 180] |
| 810 nM | 493 nM | COc1cc(C(=O)N2C[C@H]3CN(C)C[C@H]3C2)ccc1Cn1ncc2nc(N)nc(NCC3CC4(C3)CC(F)(F)C4)c21 [Compound 188] |
| 38 nM | 39.1 nM | COc1cc(CN2CC3(CC(O)C3)C2)ccc1Cn1ncc2nc(N)nc(NCC3CC4(CCC4)C3)c21 (stereo not shown) [Compound 158] |
| 32.4 nM | 4.5 nM | CCC[C@@H](CCO)Nc1nc(N)nc2cnn(Cc3ccc(CN4CC5(C4)CN(C(C)=O)C5)cc3OC)c12 [Compound 101] |
